Several values for one entry are separate records, joined by “and”; a condition that tells them apart may be missing. Identical values can stand only once.
Assays:
[1] = tested on: patients with treatment-resistant OCD; assay: Ondansetron augmentation of SRI therapy, single-blind 12-week study with 4-week discontinuation follow-up (YBOCS, CGI); format: in vivo, human; set-up: reduction in CGI-I from baseline: concentration or dose not given beside the values; conditions: for CGI-I Score / YBOCS % Reduction / YBOCS Score: individual patients (21); for Compulsion Subdomain YBOCS % Reduction / Obsession Subdomain YBOCS % Reduction / Compulsion Subdomain YBOCS Score / Obsession Subdomain YBOCS Score: individual patients
Experimental: Twenty-one patients with a DSM-IV diagnosis of treatment-resistant OCD, under stable treatment with SRIs approved by the FDA for OCD therapy, received 12 weeks of single-blind ondansetron augmentation initiated at a dose of 0.25 mg twice daily for 2 weeks, and titrated to 0.5 mg twice daily for 10 weeks. Patients were rated every two weeks using the Yale Brown Obsessive Compulsive Scale (YBOCS) and Clinical Global Impressions Scale (CGI). Treatment-resistant patients were defined as having completed an adequate trial of SRIs at a moderate to high dose for at least 12 weeks and still having a YBOCS severity of >24, and CGI-Severity of ≧4. Treatment response was defined as an additional 25% reduction in YBOCS score from YBOCS score at the initiation of ondansetron augmentation, an end of treatment (EOT) period YBOCS of ≦24, and CGI-Improvement (CGI-I) of ≦2. Additionally, ondansetron was discontinued after 12 weeks and patients were followed up for another 4 weeks for relapse in YBOCs symptoms. The obsession and compulsion subdomains of the Y-BOCS were also analyzed to determine whether ondansetron would selectively affect one subdomain or the other.

[2] = tested on: patients with treatment-resistant OCD; assay: Side effects and vital signs in the SRI plus antipsychotic augmentation study; format: in vivo, human
Experimental: The Y-BOCS, Montgomery-Asberg Depression Rating Scale (MADRS) (see Montgomery, S. A., BR J PSYCHIATRY 1979; 134:382-389) was administered at screening and baseline, and these assessments were repeated at every follow-up visit at 2-week intervals, along with the Clinical Global Impressions-Improvement (CGI-I) rating (see Guy, W. ECDEU Assessment Manual for Psychopharmacology. US Dept Health, Education, and Welfare publication (ADM) 76-338. Rockville, Md.: National Institute of Mental Health; 1976:218-222) and an unpublished Drug Effect scale. The Drug Effect scale asked subjects to rate “How anxious are you now?” on a scale of zero (not at all) to 10 (“the most anxious I have ever been”). Similar rating questions have been “Do you experience appearance or increment in frequency of headaches?”, “Do you experience appearance or increment in frequency of headaches fatigue?” and “Do you experience appearance or increment in frequency of headaches constipation” and so on regarding other common ondansetron side effects (diarrhea, urinary retention, itching, and dizziness). Furthermore, each evening during the first week of study medication, a study psychiatrist called the subject to ask for major or unexpected collateral effects (as chest pain, an unexplained skin rash, or tremors.). […] (See Mittmann, N. et al., AM J PSYCHIATRY 1997; 154:320-321) Subjects with MADRS scores ≧18 were excluded. Ratings were administered by an investigator who was blind to the treatment condition of the patients.
One patient reported a mild increase in anxiety levels, which lasted only one night. No change in mean pulse rate or mean blood pressure was observed. […] The daily dose of 1 mg/day divided in twice daily administration, approximately 5% of the minimum dose recommended for emesis and nausea treatment was reached after 6 weeks and maintained until the 12th week.

[3] = tested on: mesenteric bed or the nerves in the heart; conditions: animal studies; cited from earlier work
[4] = Week 14 (after discontinuation), Non-Responders
[5] = Week 14 (after discontinuation), Responders
[6] = Week 16 (after discontinuation), Non-Responders
[7] = Week 16 (after discontinuation), Responders
[8] = first 2 weeks of treatment, n=14

## Cc1nccn1CC1CCc2c(c3ccccc3n2C)C1=O (stereo not drawn) [ondansetron]
[1]; 0.25 mg twice daily 2 weeks, then 0.5 mg twice daily 10 weeks
  tolerability of treatment: well tolerated
[1]; 6 Weeks
  CGI-I Score: 2 (7×) and 3 (2×) and 5 (6×) and 1 (3×) and 4 (3×)
  YBOCS % Reduction: 16.00% and 0.00% (3×) and 5.00%
  YBOCS Score: 22 and 19 (3×) and 28 and 21 (2×) and 27 and 24 (2×) and 14 and 29 (3×) and 38 and 32 and 17 and 25 and 16 and 26 and 31
[1]; 6 weeks, Non-Responders
  Compulsion Subdomain YBOCS % Reduction: −7.14% and 5.00% and −13.33% and −15.38% and 13.33% and 14.29% and 0.00% and 12.50% and −16.67%
  Obsession Subdomain YBOCS % Reduction: 16.67% and 0.00% (3×) and 5.00% and −7.69% and −6.67% and 6.25% and 12.50%
[1]; 6 weeks, Responders
  Compulsion Subdomain YBOCS % Reduction: 38.46% and 33.33% (2×) and 29.41% and 52.94% and 25.00% and 58.33% and 50.00% and 18.75% and 53.33% and 40.00% and 16.67%
  Obsession Subdomain YBOCS % Reduction: 26.67% and 35.29% and 25.00% (3×) and 31.25% and 33.33% and 23.08% and 20.00% and 29.41% and 28.57% and 15.38%
[1]; 12 Weeks
  CGI-I Score: 1 (10×) and 5 (8×) and 4 and 2 (2×)
  YBOCS % Reduction: 44.00% and 50.00% and 2.50% and −7.14%
  YBOCS Score: 21 (2×) and 17 and 28 and 14 (2×) and 16 (3×) and 19 (2×) and 23 and 13 and 25 and 39 and 34 and 30 (2×) and 29 and 15 and 27
[1]; 12 weeks
  average reduction in CGI-I scores for the whole group: 46%
[1]; 12 weeks, Non-Responders
  Compulsion Subdomain YBOCS % Reduction: 7.14% and 0.00% (2×) and −26.67% and −23.08% and 6.67% and 14.29% and 12.50% and −8.33%
  Obsession Subdomain YBOCS % Reduction: 16.67% and 14.29% and 5.00% and 0.00% (2×) and −7.69% and −7.14% and 12.50% (2×)
[1]; 12 weeks, Responders
  Compulsion Subdomain YBOCS % Reduction: 38.46% and 46.67% (2×) and 41.18% and 58.82% and 45.00% and 58.33% and 64.29% and 43.75% and 53.33% and 33.33% and 41.67%
  Obsession Subdomain YBOCS % Reduction: 46.67% and 52.94% and 43.75% (2×) and 44.44% and 33.33% (3×) and 30.77% and 35.29% and 35.71% and 46.15%
[1]; Non-responders
  difference between YBOCS score at baseline and after 12 weeks: 2.9%
[1]; Week 2, Non-Responders
  Compulsion Subdomain YBOCS Score, Mean: 14.78
  Obsession Subdomain YBOCS Score, Mean: 14.67
  Compulsion Subdomain YBOCS Score: 15
  Obsession Subdomain YBOCS Score: 12
[1]; Week 2, Responders
  Compulsion Subdomain YBOCS Score, Mean: 11.33
  Obsession Subdomain YBOCS Score, Mean: 12.58
  Compulsion Subdomain YBOCS Score: 11 and 12 (5×) and 10 (3×) and 16 and 5 and 14
  Obsession Subdomain YBOCS Score: 12 (4×) and 14 (3×) and 10 and 11 (2×) and 13 and 16
[1]; Week 4, Non-Responders
  Compulsion Subdomain YBOCS Score, Mean: 15.00
  Obsession Subdomain YBOCS Score, Mean: 14.44
  Compulsion Subdomain YBOCS Score: 15
  Obsession Subdomain YBOCS Score: 11
[1]; Week 4, Responders
  Compulsion Subdomain YBOCS Score, Mean: 10.08
  Obsession Subdomain YBOCS Score, Mean: 11.50
  Compulsion Subdomain YBOCS Score: 9 (3×) and 11 (2×) and 12 and 14 and 5 and 10 (2×) and 13 and 8
  Obsession Subdomain YBOCS Score: 11 (3×) and 13 (4×) and 12 (2×) and 9 and 10 (2×)
[1]; Week 6, Non-Responders
  Compulsion Subdomain YBOCS Score, Mean: 15.00
  Obsession Subdomain YBOCS Score, Mean: 14.56
  Compulsion Subdomain YBOCS Score: 15
  Obsession Subdomain YBOCS Score: 10
[1]; Week 6, Responders
  Compulsion Subdomain YBOCS Score, Mean: 9.50
  Obsession Subdomain YBOCS Score, Mean: 10.83
  Compulsion Subdomain YBOCS Score: 8 (2×) and 10 (3×) and 12 and 15 and 5 and 7 (2×) and 13 and 9
  Obsession Subdomain YBOCS Score: 11 (4×) and 12 (4×) and 9 (2×) and 10 (2×)
[1]; Week 8, Non-Responders
  Compulsion Subdomain YBOCS Score, Mean: 15.22
  Obsession Subdomain YBOCS Score, Mean: 14.44
  Compulsion Subdomain YBOCS Score: 13
  Obsession Subdomain YBOCS Score: 10
[1]; Week 8, Responders
  Compulsion Subdomain YBOCS Score, Mean: 8.83
  Obsession Subdomain YBOCS Score, Mean: 10.00
  Compulsion Subdomain YBOCS Score: 8 and 9 (2×) and 10 (3×) and 7 and 15 and 5 (2×) and 12 and 6
  Obsession Subdomain YBOCS Score: 8 (2×) and 10 (5×) and 12 (3×) and 9 (2×)
[1]; Week 10, Non-Responders
  Compulsion Subdomain YBOCS Score, Mean: 15.44
  Obsession Subdomain YBOCS Score, Mean: 14.44
[1]; Week 10, Responders
  Compulsion Subdomain YBOCS Score, Mean: 8.17
  Obsession Subdomain YBOCS Score, Mean: 9.33
  Compulsion Subdomain YBOCS Score: 8 (3×) and 9 and 10 (2×) and 7 and 11 (2×) and 5 (2×) and 6
  Obsession Subdomain YBOCS Score: 8 (3×) and 10 (4×) and 9 (4×) and 12
[1]; Week 12, Non-Responders
  Compulsion Subdomain YBOCS Score, Mean: 15.22
  Obsession Subdomain YBOCS Score, Mean: 14.22
[1]; Week 12, Responders
  Compulsion Subdomain YBOCS Score, Mean: 7.92
  Obsession Subdomain YBOCS Score, Mean: 8.83
  Compulsion Subdomain YBOCS Score: 8 (3×) and 10 (2×) and 7 (3×) and 11 and 5 (2×) and 9
  Obsession Subdomain YBOCS Score: 8 (4×) and 9 (4×) and 10 (2×) and 11 and 7
[1]; [4]
  Compulsion Subdomain YBOCS Score, Mean: 15.00
  Obsession Subdomain YBOCS Score, Mean: 14.00
[1]; [5]
  Compulsion Subdomain YBOCS Score, Mean: 10.67
  Obsession Subdomain YBOCS Score, Mean: 11.25
  Compulsion Subdomain YBOCS Score: 8 (2×) and 13 (3×) and 11 (3×) and 6 and 12 (2×) and 10
  Obsession Subdomain YBOCS Score: 9 (2×) and 14 (2×) and 12 (3×) and 13 and 11 (2×) and 8 and 10
[1]; [6]
  Compulsion Subdomain YBOCS Score, Mean: 14.78
  Obsession Subdomain YBOCS Score, Mean: 13.67
[1]; [7]
  Compulsion Subdomain YBOCS Score, Mean: 11.50
  Obsession Subdomain YBOCS Score, Mean: 11.67
  Compulsion Subdomain YBOCS Score: 8 (2×) and 13 (4×) and 14 and 12 (2×) and 15 and 6 and 11
  Obsession Subdomain YBOCS Score: 9 (2×) and 15 and 13 and 12 (3×) and 14 (2×) and 8 and 11 (2×)
[1]; YBOCS subdomains
  overall ondansetron effects for obsessions versus compulsions: comparable
[1]; responders, after 12 weeks
  reduction in CGI-I from baseline: 77%
  reduction in YBOCS from baseline: 44%
[2]; 12 weeks
  subjects with significant or lasting side effects (such as constipation): None
[2]; at 6 weeks, fourteen subjects
  subjects with significant side effects or worsening of OC symptoms: None
[2]; [8]
  patients with decreased appetite: two
  patients with headache: two
[2]; lasted only one night, n=14
  patients with mild increase in anxiety levels: One
[2]; n=14
  mean pulse rate or mean blood pressure: No change
[2]; throughout the study, n=14
  Side effects severity: mild to moderate
[3]
  effect on the mesenteric bed or the nerves in the heart: did not appear to have effect

Source: patent US20120302616A1, “METHOD OF TREATMENT OF OBSESSIVE COMPULSIVE DISORDER WITH ONDANSETRON” (priority 2010, published 2012)
